Experimental data reported in patent publication US20230392123A1, “[…]-ASSEMBLED PEPTIDE HYDROGELS […]” (KATHOLIEKE UNIVERSITEIT LEUVEN, priority 2020, published 2023).
“Also recorded” adds a separate entry of the source.

Tested on: HepG2 cells
Assay: Live/dead staining of HepG2 hydrogel spheroids in 384 well plate, high-content imaging
Assay type: cell-based
Conditions: 0.1% Triton X for 15 minutes, after 19 days of culture, toxic control
Protocol: High-throughput assays: HepG2 cells were cultured in 2D in DMEM (Invitrogen Cat #31885)+10% fetal bovine serum (FBS). Cells were detached at passage 12 by 0.05% trypsin and mixed (1×10^7 cells/ml) with Puramatrix™+10% Bovine Collagen I (Gibco, Ref: A10644-01, Auckland, NZ) and 1 ul of the mix was pipetted in each well of a 384 well plate (Greiner microplate, Ref: 787979) to form the HepG2 hydrogel spheroids (one hydrogel spheroid per well). Hydrogel spheroids were maintained in HepG2 medium and the medium change was handled automatically by a robotic platform (NextGenQBio) for 19 days. Live/dead staining (Invitrogen, Ref:3224) was performed on the cell in the spheroids according the manufacturer's instruction. Prior to live/dead staining, a group of the hydrogel spheroids were treated with 0.1% Triton X for 15 minutes as control. Nuclei was stained by Hoechst (1:1000 dilution) for 15 minutes. The plate was imaged by a high-content analysis system (Operetta, PerkinElmer®). […] This experiment highlights the potential of hydrogel spheroids to be used in a high-throughput set up specifically important for drug/compound screening and toxicity studies.

Substance: Triton X
- live (green)/dead (red) staining of HepG2 cells in hydrogel spheroids: minimal or no green colour; also recorded: cell death
